Our source for the residual activity, IC50 and inhibition values is ChEMBL document CHEMBL4507319 (2021).

Each structure is given as a SMILES string. pIC50: −log10 of the molar value. Some results are limits rather than exact numbers.

The target of experiment [1] is Cyclin-G-associated kinase (Homo sapiens) (UniProt O14976). To be noted: Compound concentration 1000.0 nM.
The target of experiment [2] is Phosphorylase b kinase regulatory subunit alpha, liver isoform (Homo sapiens) (UniProt P46019). To be noted: Compound concentration 1000.0 nM.
The target in experiment [3] is Interferon-induced, double-stranded RNA-activated protein kinase (Homo sapiens) (UniProt P19525). To be noted: Compound concentration 1000.0 nM.
The target in experiment [4] is Serine/threonine-protein kinase WNK1 (Homo sapiens) (UniProt Q9H4A3). The conditions noted are these: Compound concentration 1000.0 nM.
The target in experiment [5] is Dual specificity mitogen-activated protein kinase kinase 2 (Homo sapiens) (UniProt P36507). The conditions noted are these: Compound concentration 1000.0 nM.
The test system of experiment [6] is ALK tyrosine kinase receptor (Homo sapiens), Q9UM73 [L1196M]. The conditions noted are these: Compound concentration 1000.0 nM.
Experiment [7] deals with T1, Serine/threonine-protein kinase ULK3 (Homo sapiens) (UniProt Q6PHR2).
T1 sequence (whole entry): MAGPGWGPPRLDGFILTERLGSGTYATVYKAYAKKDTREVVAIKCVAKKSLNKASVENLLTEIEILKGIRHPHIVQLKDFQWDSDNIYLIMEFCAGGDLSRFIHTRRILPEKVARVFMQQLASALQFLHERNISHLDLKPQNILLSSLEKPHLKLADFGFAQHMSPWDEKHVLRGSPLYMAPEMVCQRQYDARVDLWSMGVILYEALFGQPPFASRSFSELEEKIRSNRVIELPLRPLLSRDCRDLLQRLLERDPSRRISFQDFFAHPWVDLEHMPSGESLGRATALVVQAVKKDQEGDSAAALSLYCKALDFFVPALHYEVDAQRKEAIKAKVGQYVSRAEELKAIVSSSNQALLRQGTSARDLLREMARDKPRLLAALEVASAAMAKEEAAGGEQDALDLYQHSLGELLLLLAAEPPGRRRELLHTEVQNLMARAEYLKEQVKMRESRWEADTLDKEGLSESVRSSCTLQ
To be noted: Compound concentration 1000.0 nM.

In experiment [8] the target is Cyclin-dependent kinase 18 (Homo sapiens) (UniProt Q07002). The conditions noted are these: Compound concentration 1000.0 nM.
Experiment [9] concerns the target 5'-AMP-activated protein kinase catalytic subunit alpha-1 (Homo sapiens, UniProt Q13131). The experiment can be described thus: Cellular mechanistic pACC assay using Colo-320 cells. In kind it is cell-based.
The target of experiment [10] is Non-receptor tyrosine-protein kinase TYK2 (Homo sapiens) (UniProt P29597). To be noted: Compound concentration 1000.0 nM.
The target in experiment [11] is T2, Mitogen-activated protein kinase 12 (Homo sapiens) (UniProt P53778).
T2 sequence (whole entry): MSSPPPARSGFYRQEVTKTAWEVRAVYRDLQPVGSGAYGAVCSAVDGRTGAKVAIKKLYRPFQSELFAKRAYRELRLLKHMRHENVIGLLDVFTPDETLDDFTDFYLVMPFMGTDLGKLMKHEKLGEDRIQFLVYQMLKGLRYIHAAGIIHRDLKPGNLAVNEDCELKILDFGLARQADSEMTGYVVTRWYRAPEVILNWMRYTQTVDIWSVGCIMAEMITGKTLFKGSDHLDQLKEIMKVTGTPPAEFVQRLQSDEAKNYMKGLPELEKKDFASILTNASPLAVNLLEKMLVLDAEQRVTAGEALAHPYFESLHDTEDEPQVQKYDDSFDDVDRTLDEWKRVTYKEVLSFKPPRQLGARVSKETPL
The conditions noted are these: Compound concentration 1000.0 nM.

In experiment [12] the target is Serine/threonine-protein kinase WNK2 (Homo sapiens) (UniProt Q9Y3S1). To be noted: Compound concentration 1000.0 nM.
The target of experiment [13] is Fibroblast growth factor receptor 1 (Homo sapiens) (UniProt P11362). To be noted: Compound concentration 1000.0 nM.
The target of experiment [14] is Serine/threonine-protein kinase SBK1 (Homo sapiens) (UniProt Q52WX2). The conditions noted are these: Compound concentration 1000.0 nM.
In experiment [15] the target is Cyclin-dependent kinase 8 (Homo sapiens) (UniProt P49336). To be noted: Compound concentration 1000.0 nM.
Experiment [16] deals with Cyclin-dependent kinase 16 (Homo sapiens) (UniProt Q00536). The conditions noted are these: Compound concentration 1000.0 nM.
The target in experiment [17] is Serine/threonine-protein kinase SIK3 (Homo sapiens) (UniProt Q9Y2K2). To be noted: Compound concentration 1000.0 nM.
Experiment [18] concerns the target Citron Rho-interacting kinase (Homo sapiens) (UniProt O14578). To be noted: Compound concentration 1000.0 nM.
In experiment [19] the target is GABA-A receptor; anion channel (Rattus norvegicus) (UniProt O09028+P15431+P18506+P18508+P19969+P20236+P23574+P23576+P28471+P28473+P30191+P62813+P63079+P63138+Q91ZM7+Q9ES14). To be noted: Compound concentration 10.0 uM.
The test system of experiment [20] is Tyrosine-protein kinase ABL1 (Homo sapiens), P00519 [T315I]. To be noted: Compound concentration 1000.0 nM.
Experiment [21] addresses Glycogen synthase kinase-3 beta (Homo sapiens) (UniProt P49841). The conditions noted are these: Compound concentration 1000.0 nM.
The target in experiment [22] is Casein kinase I isoform epsilon (Homo sapiens) (UniProt P49674). The conditions noted are these: Compound concentration 1000.0 nM.
The target of experiment [23] is Mast/stem cell growth factor receptor Kit (Homo sapiens) (UniProt P10721). To be noted: Compound concentration 1000.0 nM.
Experiment [24] addresses Non-receptor tyrosine-protein kinase TNK1 (Homo sapiens) (UniProt Q13470). The conditions noted are these: Compound concentration 1000.0 nM.

The term IC50 denotes the concentration that inhibits the measured activity by half. Low readings indicate higher potency, high ones lower potency. As a reminder, the inhibition is the relative decrease from the control value, in per cent. For orientation: pIC50 means −log10 of the IC50, conventionally taken in molar units.

Chain of Casein kinase I isoform epsilon (Homo sapiens) (P49674 whole entry, looked up, canonical isoform): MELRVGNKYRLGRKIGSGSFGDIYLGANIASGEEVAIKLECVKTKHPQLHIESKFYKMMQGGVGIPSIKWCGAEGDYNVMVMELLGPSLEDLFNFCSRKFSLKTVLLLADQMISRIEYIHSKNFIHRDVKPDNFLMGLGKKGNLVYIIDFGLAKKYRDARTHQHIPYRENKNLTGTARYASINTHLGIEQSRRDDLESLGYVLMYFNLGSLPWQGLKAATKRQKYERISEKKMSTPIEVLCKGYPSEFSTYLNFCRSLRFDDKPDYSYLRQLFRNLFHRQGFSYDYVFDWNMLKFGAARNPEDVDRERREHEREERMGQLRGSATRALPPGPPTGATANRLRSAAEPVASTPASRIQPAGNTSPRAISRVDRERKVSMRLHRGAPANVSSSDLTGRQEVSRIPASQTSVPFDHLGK
Chain of Cyclin-G-associated kinase (Homo sapiens) (O14976 whole entry, canonical isoform): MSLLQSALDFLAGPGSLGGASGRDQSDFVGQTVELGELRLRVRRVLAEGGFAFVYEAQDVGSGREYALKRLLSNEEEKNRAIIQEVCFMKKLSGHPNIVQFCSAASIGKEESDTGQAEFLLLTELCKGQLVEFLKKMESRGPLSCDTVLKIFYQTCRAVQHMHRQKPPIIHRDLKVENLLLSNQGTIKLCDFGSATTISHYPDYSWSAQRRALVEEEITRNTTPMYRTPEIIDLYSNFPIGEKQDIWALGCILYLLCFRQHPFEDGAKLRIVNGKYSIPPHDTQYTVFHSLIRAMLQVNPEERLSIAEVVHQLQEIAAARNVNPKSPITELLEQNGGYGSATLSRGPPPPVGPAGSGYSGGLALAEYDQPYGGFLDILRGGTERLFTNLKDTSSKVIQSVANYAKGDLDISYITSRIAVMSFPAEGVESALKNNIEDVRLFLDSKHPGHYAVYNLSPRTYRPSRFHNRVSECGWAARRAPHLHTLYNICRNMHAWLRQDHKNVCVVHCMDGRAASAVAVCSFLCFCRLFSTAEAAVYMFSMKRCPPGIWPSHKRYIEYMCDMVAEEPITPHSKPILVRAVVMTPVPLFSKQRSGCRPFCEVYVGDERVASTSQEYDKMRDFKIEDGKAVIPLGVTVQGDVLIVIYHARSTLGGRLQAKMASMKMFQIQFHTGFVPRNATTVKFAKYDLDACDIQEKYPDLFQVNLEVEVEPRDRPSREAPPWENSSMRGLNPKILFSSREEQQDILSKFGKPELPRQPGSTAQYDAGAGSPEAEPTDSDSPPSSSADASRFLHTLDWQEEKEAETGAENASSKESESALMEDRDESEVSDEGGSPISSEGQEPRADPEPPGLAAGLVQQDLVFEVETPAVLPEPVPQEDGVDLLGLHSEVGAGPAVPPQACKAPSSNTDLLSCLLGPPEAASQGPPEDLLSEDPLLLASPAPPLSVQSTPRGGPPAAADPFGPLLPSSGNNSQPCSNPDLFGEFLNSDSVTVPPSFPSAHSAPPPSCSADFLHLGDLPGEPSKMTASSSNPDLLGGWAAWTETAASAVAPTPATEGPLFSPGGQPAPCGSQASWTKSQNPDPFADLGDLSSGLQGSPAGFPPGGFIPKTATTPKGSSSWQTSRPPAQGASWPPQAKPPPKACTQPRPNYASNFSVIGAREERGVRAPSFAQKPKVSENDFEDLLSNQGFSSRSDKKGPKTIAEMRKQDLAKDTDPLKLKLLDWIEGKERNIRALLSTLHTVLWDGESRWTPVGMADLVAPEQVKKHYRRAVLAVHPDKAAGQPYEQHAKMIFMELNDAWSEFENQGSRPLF
Chain of Dual specificity mitogen-activated protein kinase kinase 2 (Homo sapiens) (P36507 whole entry): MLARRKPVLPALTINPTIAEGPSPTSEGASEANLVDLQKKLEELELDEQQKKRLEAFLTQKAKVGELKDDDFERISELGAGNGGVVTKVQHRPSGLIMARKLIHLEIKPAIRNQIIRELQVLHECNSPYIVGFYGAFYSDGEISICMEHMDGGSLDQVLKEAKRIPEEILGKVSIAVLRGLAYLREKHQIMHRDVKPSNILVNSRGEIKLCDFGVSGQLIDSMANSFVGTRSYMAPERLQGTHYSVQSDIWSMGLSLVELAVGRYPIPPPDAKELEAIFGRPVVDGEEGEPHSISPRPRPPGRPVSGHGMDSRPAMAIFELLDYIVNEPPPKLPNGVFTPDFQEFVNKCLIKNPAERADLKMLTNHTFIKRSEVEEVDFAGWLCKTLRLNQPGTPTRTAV
Chain of Citron Rho-interacting kinase (Homo sapiens) (O14578 whole entry): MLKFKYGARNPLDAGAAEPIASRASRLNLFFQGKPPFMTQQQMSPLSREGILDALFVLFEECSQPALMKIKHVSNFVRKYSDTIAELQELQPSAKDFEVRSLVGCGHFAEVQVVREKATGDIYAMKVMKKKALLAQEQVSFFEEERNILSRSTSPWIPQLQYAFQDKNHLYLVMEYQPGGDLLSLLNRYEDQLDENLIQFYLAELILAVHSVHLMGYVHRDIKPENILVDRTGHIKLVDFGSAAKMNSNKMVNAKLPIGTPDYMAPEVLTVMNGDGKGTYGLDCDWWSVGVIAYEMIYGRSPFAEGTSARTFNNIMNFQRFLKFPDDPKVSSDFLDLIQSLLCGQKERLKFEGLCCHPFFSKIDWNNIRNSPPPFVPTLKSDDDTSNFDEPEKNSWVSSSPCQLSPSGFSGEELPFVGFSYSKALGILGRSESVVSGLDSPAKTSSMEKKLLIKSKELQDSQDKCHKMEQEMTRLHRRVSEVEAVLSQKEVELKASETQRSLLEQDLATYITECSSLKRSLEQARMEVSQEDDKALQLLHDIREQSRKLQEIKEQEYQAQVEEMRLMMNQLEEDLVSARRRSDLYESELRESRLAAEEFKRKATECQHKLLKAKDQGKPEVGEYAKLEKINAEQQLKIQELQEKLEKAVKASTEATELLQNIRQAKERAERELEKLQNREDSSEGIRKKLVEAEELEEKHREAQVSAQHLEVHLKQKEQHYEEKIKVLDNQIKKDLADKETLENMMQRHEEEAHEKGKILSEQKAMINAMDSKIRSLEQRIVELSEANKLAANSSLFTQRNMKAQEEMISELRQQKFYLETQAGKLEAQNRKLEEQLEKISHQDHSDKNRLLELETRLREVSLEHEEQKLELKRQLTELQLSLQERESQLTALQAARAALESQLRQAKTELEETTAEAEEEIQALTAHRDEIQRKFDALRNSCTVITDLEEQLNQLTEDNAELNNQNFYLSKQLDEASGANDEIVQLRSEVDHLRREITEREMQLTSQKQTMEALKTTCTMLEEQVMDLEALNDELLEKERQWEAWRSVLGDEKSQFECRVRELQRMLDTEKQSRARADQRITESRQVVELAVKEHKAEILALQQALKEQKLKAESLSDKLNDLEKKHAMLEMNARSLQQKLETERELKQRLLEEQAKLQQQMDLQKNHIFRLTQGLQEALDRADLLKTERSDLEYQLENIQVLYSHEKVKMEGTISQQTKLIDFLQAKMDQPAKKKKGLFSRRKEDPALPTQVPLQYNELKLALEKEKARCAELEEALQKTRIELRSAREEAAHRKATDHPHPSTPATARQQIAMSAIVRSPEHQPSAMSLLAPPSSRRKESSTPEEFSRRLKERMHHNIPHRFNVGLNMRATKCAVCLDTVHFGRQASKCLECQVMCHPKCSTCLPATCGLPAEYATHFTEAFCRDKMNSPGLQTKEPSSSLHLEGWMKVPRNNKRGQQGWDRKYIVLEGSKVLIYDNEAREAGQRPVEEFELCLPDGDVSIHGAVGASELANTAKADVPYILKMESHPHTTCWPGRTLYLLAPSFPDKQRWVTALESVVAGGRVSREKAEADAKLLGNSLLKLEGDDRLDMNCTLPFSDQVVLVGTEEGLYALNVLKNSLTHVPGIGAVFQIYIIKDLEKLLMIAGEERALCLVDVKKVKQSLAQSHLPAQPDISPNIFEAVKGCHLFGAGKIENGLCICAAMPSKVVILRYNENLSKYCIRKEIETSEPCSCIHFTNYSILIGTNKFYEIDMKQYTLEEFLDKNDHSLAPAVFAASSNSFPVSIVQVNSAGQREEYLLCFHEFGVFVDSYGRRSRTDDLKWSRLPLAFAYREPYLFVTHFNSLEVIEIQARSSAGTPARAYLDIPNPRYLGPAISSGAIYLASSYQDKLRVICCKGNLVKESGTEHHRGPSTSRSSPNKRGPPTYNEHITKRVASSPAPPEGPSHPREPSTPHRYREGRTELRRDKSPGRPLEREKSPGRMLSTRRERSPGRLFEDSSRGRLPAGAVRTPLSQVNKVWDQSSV
Chain of Glycogen synthase kinase-3 beta (Homo sapiens) (P49841 whole entry, looked up, canonical isoform): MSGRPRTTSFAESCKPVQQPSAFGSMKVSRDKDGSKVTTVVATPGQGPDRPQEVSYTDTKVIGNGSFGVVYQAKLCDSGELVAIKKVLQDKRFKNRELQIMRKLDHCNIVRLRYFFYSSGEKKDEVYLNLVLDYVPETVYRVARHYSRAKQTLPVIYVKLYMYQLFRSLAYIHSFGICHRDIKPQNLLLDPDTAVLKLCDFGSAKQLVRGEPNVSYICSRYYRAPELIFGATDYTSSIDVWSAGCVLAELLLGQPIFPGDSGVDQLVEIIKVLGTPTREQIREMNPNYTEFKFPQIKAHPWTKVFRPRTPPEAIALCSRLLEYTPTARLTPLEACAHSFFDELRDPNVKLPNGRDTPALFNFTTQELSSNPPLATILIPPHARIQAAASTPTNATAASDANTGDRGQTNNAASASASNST
Chain of Cyclin-dependent kinase 18 (Homo sapiens) (Q07002 whole entry): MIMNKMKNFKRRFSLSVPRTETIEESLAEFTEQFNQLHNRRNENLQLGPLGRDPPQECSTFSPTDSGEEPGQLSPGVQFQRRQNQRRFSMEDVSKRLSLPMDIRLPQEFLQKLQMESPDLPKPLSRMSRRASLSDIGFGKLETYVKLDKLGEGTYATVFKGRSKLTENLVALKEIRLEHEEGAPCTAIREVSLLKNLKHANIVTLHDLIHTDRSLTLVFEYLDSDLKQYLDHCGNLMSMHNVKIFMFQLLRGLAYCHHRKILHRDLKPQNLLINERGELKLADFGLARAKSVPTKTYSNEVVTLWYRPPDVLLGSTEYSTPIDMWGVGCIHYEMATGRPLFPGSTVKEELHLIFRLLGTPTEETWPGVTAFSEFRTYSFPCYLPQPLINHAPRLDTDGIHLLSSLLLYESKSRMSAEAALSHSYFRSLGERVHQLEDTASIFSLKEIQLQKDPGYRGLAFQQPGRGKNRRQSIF

`CC1=C(C#N)C(c2ccc3c(c2)c(NC(=O)c2ccccc2C)nn3C)C(C#N)=C(C)N1` [BAY-974]: the residual activity in experiment [1] was 100%; in experiment [2] it was 89%; in [3] it was 100%; in experiment [4] it was 82%; in experiment [5], 82%; in [6], 80%. The residual activity is 84% in experiment [7]; 100% in [8]; 88% in [10]; 68% in [11]; 75% in [12]; 97% in experiment [13]. Further, the residual activity is 98% in [14]; 97% in experiment [15]; 93% in experiment [16]; 81% in experiment [17]; 55% in experiment [18]; 88% in [20]. The residual activity in experiment [21] is 81%; in experiment [22] it was 100%; in experiment [23], 77%; in [24] it was 76%. Further, the IC50 in [9] was > 30 µM (not active). Moreover, the inhibition in experiment [19] was -0.8%.
Turning to `CCc1ccccc1C(=O)Nc1n[nH]c2c(C)c(F)c(C3C(C#N)=C(C)N(C)C(C)=C3C#N)cc12` [BAY-3827], the residual activity in [1] is 82%; in experiment [2], 81%; in [3] it was 100%; in [4], 100%; in experiment [5] it was 100%; in experiment [6], 83%. Besides, the residual activity in experiment [7] was 82%; in [8], 75%; in experiment [10] it was 100%; in experiment [11], 76%; in experiment [12], 100%; in experiment [13] it was 97%. Besides, the residual activity in experiment [14] was 100%; in experiment [15], 71%; in [16] it was 100%; in experiment [17] it was 74%; in experiment [18], 90%; in [20] it was 100%. Also, the residual activity in experiment [21], in [22], in experiment [23] and in experiment [24] was 100% each time. For the same molecule, the negative-log IC50 (pIC50) in [9] is 6.41. In addition, the inhibition in experiment [19] was -7.98%.
